Where two headings read alike, the source gives them in different places.
Key:
[1] = target: T1, PI3Kα H1047R protein (p110-α H1047R complexed with truncated p85-α) (Homo sapiens, UniProt P42336, H1047R); test: Surface Plasmon Resonance (SPR) binding, wortmannin-blocked protein; details: Biacore 8K, ATP site blocked with 1 μM wortmannin, 25° C.
T1 construct: The protein contained a full-length p110-α subunit harboring the H1047R mutation
Experimental: Surface Plasmon Resonance (SPR)
SPR experiments were performed on a Biacore 8K instrument. A biotinylated recombinant PI3Kα H1047R protein was used in this study. The protein contained a full-length p110-α subunit harboring the H1047R mutation with an N-terminal AviTag, complexed with a truncated p85-α subunit (amino acid residues 322-694). The protein was first incubated with 1 μM wortmannin for 30 min at RT to covalently block the ATP binding site, then immobilized onto a streptavidin sensor chip by flowing the protein through the sensor chip at typically 20 μg/mL concentration and 2 μL/min flow rate for 1200 seconds. Compound binding affinities were measured in the multi-cycle kinetics mode, at 90 μL/min flow rate with 90 seconds association time and 240 seconds dissociation time. The running buffer contained 50 mM Tris, pH 7.5, 150 mM NaCl, 0.01% Brij35, 1 mM DTT, 1 mM MgCl2, 0.05% Tween-20 and 2% DMSO. Temperature was maintained at 25° C. during experiments.

[2] = tested on: T47D pAKT (S473), PI3Kα H1047R mutation present; test: HTRF pAKT-T47D;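 also: assay medium was RPMI with 10% FBS and 0.2 units/ml bovine insulin, without phenol red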
[3] = Homo sapiens, T47D, 1 h, read-out: T47D pAKT IC50 (nM), T47D.1 cells, pAKT (S473) HTRF, 1 hour
[4] = read-out: T47D pAKT IC50, T47D.1 cells, pAKT (S473) HTRF, 1 hour

T1 sequence (P42336 whole entry H1047R, the tested form may be a part): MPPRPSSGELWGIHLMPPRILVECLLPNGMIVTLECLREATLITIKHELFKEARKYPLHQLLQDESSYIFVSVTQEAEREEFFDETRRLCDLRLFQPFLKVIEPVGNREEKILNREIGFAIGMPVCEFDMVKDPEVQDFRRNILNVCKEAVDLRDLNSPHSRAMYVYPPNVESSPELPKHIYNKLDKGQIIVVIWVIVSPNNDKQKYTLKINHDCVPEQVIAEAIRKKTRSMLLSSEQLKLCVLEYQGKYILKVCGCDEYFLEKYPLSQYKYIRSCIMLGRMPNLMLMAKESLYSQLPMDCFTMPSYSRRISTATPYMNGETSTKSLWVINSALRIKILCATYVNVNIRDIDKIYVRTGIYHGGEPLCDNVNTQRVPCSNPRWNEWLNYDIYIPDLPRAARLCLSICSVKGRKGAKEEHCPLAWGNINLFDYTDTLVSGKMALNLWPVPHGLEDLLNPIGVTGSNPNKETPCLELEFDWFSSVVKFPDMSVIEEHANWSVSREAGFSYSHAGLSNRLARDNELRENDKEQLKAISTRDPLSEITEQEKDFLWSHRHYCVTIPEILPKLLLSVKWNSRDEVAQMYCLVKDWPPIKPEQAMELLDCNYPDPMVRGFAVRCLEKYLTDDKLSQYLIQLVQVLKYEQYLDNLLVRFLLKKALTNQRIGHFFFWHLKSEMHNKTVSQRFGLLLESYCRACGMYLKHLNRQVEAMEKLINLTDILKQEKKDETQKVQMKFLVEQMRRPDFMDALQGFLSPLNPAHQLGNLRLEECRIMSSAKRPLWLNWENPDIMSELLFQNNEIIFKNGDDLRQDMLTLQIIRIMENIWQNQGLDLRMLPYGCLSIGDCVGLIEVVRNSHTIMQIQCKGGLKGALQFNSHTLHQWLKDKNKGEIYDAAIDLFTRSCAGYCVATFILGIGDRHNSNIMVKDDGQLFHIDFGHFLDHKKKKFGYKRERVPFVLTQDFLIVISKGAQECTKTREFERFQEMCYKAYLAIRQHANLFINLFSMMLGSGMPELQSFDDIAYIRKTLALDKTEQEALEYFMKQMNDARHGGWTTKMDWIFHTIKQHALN
T1 sequence (P27986 322-694 partner limits assumed): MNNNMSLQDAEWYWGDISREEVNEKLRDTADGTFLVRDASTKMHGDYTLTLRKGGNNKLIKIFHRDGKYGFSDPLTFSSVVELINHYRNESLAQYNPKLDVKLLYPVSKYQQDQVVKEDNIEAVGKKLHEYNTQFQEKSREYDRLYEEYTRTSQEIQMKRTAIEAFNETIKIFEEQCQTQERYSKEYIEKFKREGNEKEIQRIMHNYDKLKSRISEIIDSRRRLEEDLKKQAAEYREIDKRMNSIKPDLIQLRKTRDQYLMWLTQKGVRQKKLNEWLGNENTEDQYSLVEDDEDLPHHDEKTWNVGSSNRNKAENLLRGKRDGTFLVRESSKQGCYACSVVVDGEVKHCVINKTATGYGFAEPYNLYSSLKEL

Compound | Kd [1] | IC50 [2, 3] | IC50 [2, 4]
CC(C)C(NC(=O)Nc1cccc(C(N)=O)c1)c1cc2cc(F)ccc2o1 (racemic) [Compound 50, 3-(3-(1-(5-fluorobenzofuran-2-yl)-2-methylpropyl)ureido)benzamide] | 100 to 250 nM | > 5000 nM | –
Cc1c(C(NC(=O)Nc2cccc(C(N)=O)c2)C(C)C)oc2ccc(F)c(F)c12 (racemic) [Compound 54, 3-(3-(1-(4,5-difluoro-3-methylbenzofuran-2-yl)-2-methylpropyl)ureido)benzamide] | 100 to 250 nM | > 5000 nM | –
Cc1c(C(NC(=O)Nc2cnc(N)nc2)C(F)(F)F)oc2ccc(F)cc12 (racemic) [Compound 68, 1-(2-aminopyrimidin-5-yl)-3-(2,2,2-trifluoro-1-(5-fluoro-3-methylbenzofuran-2-yl)ethyl)urea] | < 100 nM | < 1000 nM | –
Cc1c([C@@H](NC(=O)N[C@H]2CC[C@H](C(N)=O)CC2)C(C)C)oc2ccc(F)cc12 (relative stereo) [Compound 42, (1R,4r)-4-(3-((R*)-1-(5-fluoro-3-methylbenzofuran-2-yl)-2-methylpropyl)ureido)cyclohexane-1-carboxamide] | ≥ 500 nM | – | –
Cc1c(C(NC(=O)Nc2ccc(S(C)(=O)=O)cc2)C(C)C)oc2ccc(F)cc12 (single isomer, unassigned) [Compound 11] | 100 to 250 nM | – | –
CNS(=O)(=O)c1ccc(NC(=O)NC(C)c2oc3ccc(F)cc3c2C)cc1 (single isomer, unassigned) [Compound 14] | ≥ 500 nM | – | –
Cc1c([C@@H](NC(=O)N[C@@H]2CCCN(S(C)(=O)=O)C2)C(C)C)oc2ccc(F)cc12 (single isomer, unassigned) [Compound 19] | ≥ 500 nM | – | –
Cc1c([C@@H](NC(=O)N[C@H]2CCCN(S(C)(=O)=O)C2)C(C)C)oc2ccc(F)cc12 (single isomer, unassigned) [Compound 20] | 100 to 250 nM | 1000 to 5000 nM | –
Cc1c([C@@H](NC(=O)Nc2ccc(C(N)=O)cc2)C(C)C)oc2ccc(F)cc12 (single isomer, unassigned) [Compound 21] | 100 to 250 nM | – | –
Cc1c([C@@H](NC(=O)Nc2cccc(S(C)(=N)=O)c2)C(C)C)oc2ccc(F)cc12 (single isomer, unassigned) [Compound 29] | 100 to 250 nM | 1000 to 5000 nM | –
Cc1c([C@@H](NC(=O)Nc2cccc(S(C)(=N)=O)c2)C(C)C)oc2ccc(F)cc12 (single isomer, unassigned) [Compound 30] | 100 to 250 nM | – | 1000 to 5000 nM
Cc1c([C@@H](NC(=O)N[C@@H]2CCC[C@@H](C(N)=O)C2)C(C)C)oc2ccc(F)cc12 (single isomer, unassigned) [Compound 32] | 100 to 250 nM | > 5000 nM | –
Cc1c([C@@H](C)NC(=O)Nc2ccc(C(N)=O)cc2)oc2ccc(F)cc12 [Compound 4, (R)-4-(3-(1-(5-fluoro-3-methylbenzofuran-2-yl)ethyl)ureido)benzamide] | ≥ 500 nM | – | –
Cc1c([C@@H](NC(=O)N[C@H]2CC[C@H](O)CC2)C(C)C)oc2ccc(F)cc12 [Compound 6, 1-((S)-1-(5-fluoro-3-methylbenzofuran-2-yl)-2-methylpropyl)-3-((1r,4S)-4-hydroxycyclohexyl)urea] | 250 to 500 nM | – | –
Cc1c([C@@H](NC(=O)N[C@H]2CC[C@H](O)CC2)C(C)C)oc2cccc(F)c12 [Compound 7, 1-((S)-1-(4-fluoro-3-methylbenzofuran-2-yl)-2-methylpropyl)-3-((1r, 4S)-4-hydroxycyclohexyl)urea] | ≥ 500 nM | – | –
Cc1c([C@@H](NC(=O)Nc2ccc(S(C)(=O)=O)cc2)C(C)C)oc2ccccc12 [Compound 9, (S)-1-(2-methyl-1-(3-methylbenzofuran-2-yl)propyl)-3-(4-(methylsulfonyl)phenyl)urea] | 250 to 500 nM | – | –
Cc1c([C@@H](NC(=O)Nc2ccc(S(C)(=O)=O)cc2)C2CC2)oc2ccc(F)cc12 [Compound 16, (S)-1-(cyclopropyl(5-fluoro-3-methylbenzofuran-2-yl)methyl)-3-(4-(methylsulfonyl)phenyl)urea] | ≥ 500 nM | – | –
Cc1c([C@@H](NC(=O)Nc2cccc(S(N)(=O)=O)c2)C(C)C)oc2ccc(F)cc12 [Compound 17, (S)-3-(3-(1-(5-fluoro-3-methylbenzofuran-2-yl)-2-methylpropyl)ureido)benzenesulfonamide] | 250 to 500 nM | – | –
Cc1c([C@@H](NC(=O)Nc2cccc(S(C)(=N)=O)c2)C(C)C)oc2ccc(F)cc12 (stereo partly drawn) [Compound 28, 1-((S)-1-(5-fluoro-3-methylbenzofuran-2-yl)-2-methylpropyl)-3-(3-(S-methylsulfonimidoyl)phenyl)urea] | 100 to 250 nM | – | –
Cc1c([C@@H](NC(=O)Nc2cncc(C#N)c2)C2CC2)oc2ccc(F)cc12 [Compound 46, (S)-1-(5-cyanopyridin-3-yl)-3-(cyclopropyl(5-fluoro-3-methylbenzofuran-2-yl)methyl)urea] | ≥ 500 nM | – | –
COC(=O)N1CCC[C@H](NC(=O)N[C@H](c2oc3ccc(F)cc3c2C)C(C)C)C1 [Compound 55, methyl (S)-3-(3-((S)-1-(5-fluoro-3-methylbenzofuran-2-yl)-2-methylpropyl)ureido)piperidine-1-carboxylate] | ≥ 500 nM | – | –
Cc1c([C@@H](NC(=O)Nc2cnc(N3CC4(COC4)C3)nc2)C(F)(F)F)oc2ccc(F)cc12 [Compound 168, (R)-1-(2-(2-oxa-6-azaspiro[3.3]heptan-6-yl)pyrimidin-5-yl)-3-(2,2,2-trifluoro-1-(5-fluoro-3-methylbenzofuran-2-yl)ethyl)urea] | – | < 1000 nM | –

The next lines start with the values.

Kd [1] | IC50 [2, 3] | IC50 [2, 4] | Compound
– | < 1000 nM | – | Cc1c([C@@H](NC(=O)Nc2cnc(N3C[C@H](O)[C@H]3C)nc2)C(F)(F)F)oc2ccc(F)cc12 [Compound 169]
– | < 1000 nM | – | Cc1c([C@@H](NC(=O)Nc2cnc(N3C[C@@H](O)[C@@H]3C)nc2)C(F)(F)F)oc2ccc(F)cc12 [Compound 170]
– | – | > 5000 nM | C[C@@H]1[C@@H](O)CN1c1ncc(NC(=O)NC(c2cc3cc(F)cc(F)c3o2)C(F)(F)F)cn1 (stereo partly drawn) [Compound 173, 3-[1-(5,7-difluoro-1-benzofuran-2-yl)-2,2,2-trifluoroethyl]-1-{2-[(2R,3S)-3-hydroxy-2-methylazetidin-1-yl]pyrimidin-5-yl}urea]
– | – | < 1000 nM | C[C@@H]1[C@@H](O)CN1c1ncc(NC(=O)NC(c2cc3cc(F)cc(F)c3o2)C(F)(F)F)cn1 (stereo partly drawn) [Compound 174, 3-[1-(5,7-difluoro-1-benzofuran-2-yl)-2,2,2-trifluoroethyl]-1-{2-[(2R,3S)-3-hydroxy-2-methylazetidin-1-yl]pyrimidin-5-yl}urea]
– | – | < 1000 nM | Cc1c(C(NC(=O)Nc2cnc(N3C[C@@H](O)[C@@H]3C)nc2)C(F)(F)F)oc2c(F)cc(F)cc12 (stereo partly shown) [Compound 175]
– | – | > 5000 nM | Cc1c(C(NC(=O)Nc2cnc(N3C[C@@H](O)[C@@H]3C)nc2)C(F)(F)F)oc2c(F)cc(F)cc12 (stereo partly shown) [Compound 176]
– | – | > 5000 nM | Cc1c(C(NC(=O)Nc2ccc(N)nc2)C(F)(F)F)oc2c(F)cc(F)cc12 (stereo not shown) [Compound 181]
– | – | < 1000 nM | Cc1c(C(NC(=O)Nc2ccc(N)nc2)C(F)(F)F)oc2c(F)cc(F)cc12 (stereo not shown) [Compound 182]
– | – | < 1000 nM | Cc1c([C@@H](NC(=O)Nc2cnc(NCC(C)(C)O)nc2)C(F)(F)F)oc2c(F)cc(F)cc12 [Compound 183]
– | – | > 5000 nM | Cc1c([C@H](NC(=O)Nc2cnc(NCC(C)(C)O)nc2)C(F)(F)F)oc2c(F)cc(F)cc12 [Compound 184]
– | > 5000 nM | – | Cc1c([C@H](NC(=O)Nc2ccc3[nH]ncc3c2)C(F)(F)F)oc2c(F)cc(F)cc12 [Compound 193, 3-[(1S)-1-(5,7-difluoro-3-methyl-1-benzofuran-2-yl)-2,2,2-trifluoroethyl]-1-(1H-indazol-5-yl)urea]
– | < 1000 nM | – | Cc1c([C@@H](NC(=O)Nc2ccc3[nH]ncc3c2)C(F)(F)F)oc2c(F)cc(F)cc12 [Compound 194, 3-[(1R)-1-(5,7-difluoro-3-methyl-1-benzofuran-2-yl)-2,2,2-trifluoroethyl]-1-(1H-indazol-5-yl)urea]
– | < 1000 nM | – | Cc1c([C@@H](NC(=O)Nc2cnc(N3CC(C(C)(C)O)C3)nc2)C(F)(F)F)oc2c(F)cc(F)cc12 [Compound 205]
– | > 5000 nM | – | Cc1c([C@H](NC(=O)Nc2cnc(N3CC(C(C)(C)O)C3)nc2)C(F)(F)F)oc2c(F)cc(F)cc12 [Compound 206]
– | > 5000 nM | – | Cc1c([C@H](NC(=O)Nc2cnc(N3CC[C@@H](O)C3)nc2)C(F)(F)F)oc2c(F)cc(F)cc12 [Compound 207]
– | < 1000 nM | – | Cc1c([C@@H](NC(=O)Nc2cnc(N3CC[C@@H](O)C3)nc2)C(F)(F)F)oc2c(F)cc(F)cc12 [Compound 208]
– | < 1000 nM | – | Cc1c([C@@H](NC(=O)Nc2cnc(N3CC[C@H](O)C3)nc2)C(F)(F)F)oc2c(F)cc(F)cc12 [Compound 209]
– | > 5000 nM | – | Cc1c([C@H](NC(=O)Nc2cnc(N3CC[C@H](O)C3)nc2)C(F)(F)F)oc2c(F)cc(F)cc12 [Compound 210]
– | < 1000 nM | – | Cc1c([C@@H](NC(=O)Nc2cnc(N3CC(C(N)=O)C3)nc2)C(F)(F)F)oc2c(F)cc(F)cc12 [Compound 211]
– | > 5000 nM | – | Cc1c([C@H](NC(=O)Nc2cnc(N3CC(C(N)=O)C3)nc2)C(F)(F)F)oc2c(F)cc(F)cc12 [Compound 212]
